Assay results as given in patent US20220402950A1, “SUBSTITUTED BENZIMIDAZOLES AS PAD4 INHIBITORS” (BRISTOL-MYERS SQUIBB COMPANY, priority 2018, published 2022).

Target: human PAD4 (hPAD4) (Homo sapiens, UniProt Q9UM07)
Experiment: RFMS Human PAD4 Functional Assay
Format: biochemical
Conditions: hPAD4 RFMS IC50, human PAD4, rapid-fire mass spectrum (RFMS) assay; 5 nM hPAD4, 250 μM BAEE
Procedure, shortened: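 RapidFire ESI-MS quantification, normalised to a modified-citrulline internal standard, after phenyl glyoxal (final 4 mM) derivatisation of the TCA-quenched reaction. The enzyme (10 nM) sat 30 min with compound (up to 50 μM final) before 500 μM BAEE (as added) started a 90 min, 37 °C reaction. Buffer: HEPES pH 7.5, 50 μM calcium, 5 μM TPEN.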

Chain of human PAD4 (hPAD4) (Q9UM07 whole entry): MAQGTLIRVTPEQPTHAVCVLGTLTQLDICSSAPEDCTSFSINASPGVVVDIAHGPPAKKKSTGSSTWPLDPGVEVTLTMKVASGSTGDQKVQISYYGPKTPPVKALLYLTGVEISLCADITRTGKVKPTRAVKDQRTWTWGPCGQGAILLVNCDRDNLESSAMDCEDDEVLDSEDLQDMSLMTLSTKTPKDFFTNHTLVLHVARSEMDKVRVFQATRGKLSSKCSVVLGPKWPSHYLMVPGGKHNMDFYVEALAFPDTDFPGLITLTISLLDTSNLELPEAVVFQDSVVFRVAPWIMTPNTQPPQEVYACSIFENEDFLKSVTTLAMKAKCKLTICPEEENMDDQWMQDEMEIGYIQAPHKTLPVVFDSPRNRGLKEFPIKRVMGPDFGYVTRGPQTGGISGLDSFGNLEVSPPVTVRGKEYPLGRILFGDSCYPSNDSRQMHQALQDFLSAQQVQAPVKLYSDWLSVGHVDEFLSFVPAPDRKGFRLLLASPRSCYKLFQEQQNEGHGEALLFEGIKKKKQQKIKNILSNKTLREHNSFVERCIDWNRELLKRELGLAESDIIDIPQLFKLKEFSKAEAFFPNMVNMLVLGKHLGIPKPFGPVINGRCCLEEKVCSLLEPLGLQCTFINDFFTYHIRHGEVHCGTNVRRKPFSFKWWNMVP

SMILES	IC50 [nM]
COc1cc(C(=O)N2CC3CCC2[C@@H]3N)cc2nc(-c3cc4cccc(-c5ccc(NC(C)=O)cc5)c4n3CC3CC3)n(C)c12 (stereo partly drawn) [Example 133, N-(4-(2-(5-((7R)-7-amino-2-azabicyclo[2.2.1]heptane-2-carbonyl)-7-methoxy-1-methyl-1H-benzo[d]imidazol-2-yl)-1-(cyclopropylmethyl)-1H-indol-7-yl)phenyl)acetamide]	121
COc1cc(C(=O)N2C[C@H]3CC[C@@H]2[C@@H]3N)cc2nc(-c3cc4cccc(-c5ccc(C(N)=O)nc5)c4n3CC3CC3)n(C)c12 [Example 194, 5-(2-(5-((1R,4R,7R)-7-amino-2-azabicyclo[2.2.1]heptane-2-carbonyl)-7-methoxy-1-methyl-1H-benzo[d]imidazol-2-yl)-1-(cyclopropylmethyl)-1H-indol-7-yl)picolinamide]	146
COc1cc(C(=O)N2C[C@H]3CC[C@@H]2[C@@H]3N)cc2nc(-c3cc4cccc(-c5cnn(C[C@@H](C)O)c5)c4n3CC3CC3)n(C)c12 [Example 138, ((1R,4R,7R)-7-amino-2-azabicyclo[2.2.1]heptan-2-yl)(2-(1-(cyclopropylmethyl)-7-(1-((R)-2-hydroxypropyl)-1H-pyrazol-4-yl)-1H-indol-2-yl)-7-methoxy-1-methyl-1H-benzo[d]imidazol-5-yl)methanone]	147
COc1cc(C(=O)N2C[C@H]3CC[C@@H]2[C@@H]3N)cc2nc(-c3cc4cccc(-c5cnc(C(N)=O)c(F)c5)c4n3CC3CC3)n(C)c12 [Example 199, 5-(2-(5-((1R,4R,7R)-7-amino-2-azabicyclo[2.2.1]heptane-2-carbonyl)-7-methoxy-1-methyl-1H-benzo[d]imidazol-2-yl)-1-(cyclopropylmethyl)-1H-indol-7-yl)-3-fluoropicolinamide]	159
COc1cc(C(=O)N2CC3CCC2[C@@H]3N)cc2nc(-c3cc4cccc(Nc5ccnc(C(N)=O)n5)c4n3CC3CC3)n(C)c12 (stereo partly drawn) [Example 160, 4-((2-(5-((7R)-7-amino-2-azabicyclo[2.2.1]heptane-2-carbonyl)-7-methoxy-1-methyl-1H-benzo[d]imidazol-2-yl)-1-(cyclopropylmethyl)-1H-indol-7-yl)amino)pyrimidine-2-carboxamide]	110
COc1cc(C(=O)N2C[C@H]3CC[C@@H]2[C@@H]3N)cc2nc(-c3cc4cccc(-c5ccc(CNC(C)=O)c(CO)c5)c4n3CC3CC3)n(C)c12 [Example 223, N-(4-(2-(5-((1R,4R,7R)-7-amino-2-azabicyclo[2.2.1]heptane-2-carbonyl)-7-methoxy-1-methyl-1H-benzo[d]imidazol-2-yl)-1-(cyclopropylmethyl)-1H-indol-7-yl)-2-(hydroxymethyl)benzyl) acetamide]	88
COc1cc(C(=O)N2C[C@H]3CC[C@@H]2[C@@H]3N)cc2nc(-c3cc4cccc(-c5cccs5)c4n3CC3CC3)n(C)c12 [Example 131, ((1R,4R,7R)-7-amino-2-azabicyclo[2.2.1]heptan-2-yl)(2-(1-(cyclopropylmethyl)-7-(thiophen-2-yl)-1H-indol-2-yl)-7-methoxy-1-methyl-1H-benzo[d]imidazol-5-yl)methanone]	156

Second part, the molecule after the results:

IC50 [nM]	SMILES
16	COc1cc(C(=O)N2C[C@H]3CC[C@@H]2[C@@H]3N)cc2nc(-c3cc4cccc(C5CCC(N)CC5)c4n3CC3CC3)n(C)c12 (stereo partly drawn) [Example 13, (1R,4R,7R)-2-{2-[7-(4-aminocyclohexyl)-1-(cyclopropylmethyl)-1H-indol-2-yl]-7-methoxy-1-methyl-1H-1,3-benzodiazole-5-carbonyl}-2-azabicyclo[2.2.1]heptan-7-amine]
66	COc1cc(C(=O)N2C[C@H]3CC[C@@H]2[C@@H]3N)cc2nc(-c3cc4cccc(Nc5cnn(CC(F)F)c5)c4n3CC3CC3)n(C)c12 [Example 175, ((1R,4R,7R)-7-amino-2-azabicyclo[2.2.1]heptan-2-yl)(2-(1-(cyclopropylmethyl)-7-((1-(2,2-difluoroethyl)-1H-pyrazol-4-yl)amino)-1H-indol-2-yl)-7-methoxy-1-methyl-1H-benzo[d]imidazol-5-yl)methanone]
39	COc1cc(C(=O)N2C[C@H]3CC[C@@H]2[C@@H]3N)cc2nc(-c3cc4cccc(CCCCCN)c4n3CC3CC3)n(C)c12 [Example 16, (1R,4R,7R)-2-{2-[7-(5-aminopentyl)-1-(cyclopropylmethyl)-1H-indol-2-yl]-7-methoxy-1-methyl-1H-1,3-benzodiazole-5-carbonyl}-2-azabicyclo[2.2.1]heptan-7-amine]
79	COc1cc(C(=O)N2C[C@H]3CC[C@@H]2[C@@H]3N)cc2nc(-c3cc4cccc(C)c4n3CC3CC3)n(C)c12 [Example 147, ((1R,4R,7R)-7-amino-2-azabicyclo[2.2.1]heptan-2-yl)(2-(1-(cyclopropylmethyl)-7-methyl-1H-indol-2-yl)-7-methoxy-1-methyl-1H-benzo[d]imidazol-5-yl)methanone]
41	COc1cc(C(=O)N2C[C@H]3CC[C@@H]2[C@@H]3N)cc2nc(-c3cc4cccc(Nc5c(C)nn(C)c5C)c4n3CC3CC3)n(C)c12 [Example 174, ((1R,4R,7R)-7-amino-2-azabicyclo[2.2.1]heptan-2-yl)(2-(1-(cyclopropylmethyl)-7-((1,3,5-trimethyl-1H-pyrazol-4-yl)amino)-1H-indol-2-yl)-7-methoxy-1-methyl-1H-benzo[d]imidazol-5-yl)methanone]
28	COc1cc(C(=O)N2C[C@H]3CC[C@@H]2[C@@H]3N)cc2nc(-c3cc4cccc(C5CCN(C(=O)Nc6ccc(F)cc6)CC5)c4n3CC3CC3)n(C)c12 [Example 241, 4-(2-(5-((1R,4R,7R)-7-amino-2-azabicyclo[2.2.1]heptane-2-carbonyl)-7-methoxy-1-methyl-1H-benzo[d]imidazol-2-yl)-1-(cyclopropylmethyl)-1H-indol-7-yl)-N-(4-fluorophenyl)piperidine-1-carboxamide]
18	COc1cc(C(=O)N2C[C@H]3CC[C@@H]2[C@@H]3N)cc2nc(-c3cc4cccc(C5CN(C(C)=O)C5)c4n3CC3CC3)n(Cc3cnn(C)c3)c12 [Example 210, 1-(3-(2-(5-((1R,4R,7R)-7-amino-2-azabicyclo[2.2.1]heptane-2-carbonyl)-7-methoxy-1-((1-methyl-1H-pyrazol-4-yl)methyl)-1H-benzo[d]imidazol-2-yl)-1-(cyclopropylmethyl)-1H-indol-7-yl)azetidin-1-yl)ethan-1-one]
35	COc1cc(C(=O)N2C[C@H](N)C[C@@H](F)C2)cc2nc(-c3cc4cccc(C5CN(C(C)=O)C5)c4n3CC3CC3)n(Cc3cnn(C)c3)c12 [Example 212, 1-(3-(2-(5-((3R,5R)-3-amino-5-fluoropiperidine-1-carbonyl)-7-methoxy-1-((1-methyl-1H-pryazol-4-yl)methyl)-1H-benzo[d]imidazol-2-yl)-1-(cyclopropylmethyl)-1H-indol-7-yl)azetidin-1-yl)ethane-1-one]
13	COc1cc(C(=O)N2C[C@H]3CC[C@@H]2[C@@H]3N)cc2nc(-c3cc4cccc(C5CCN(C(=O)Nc6ccncc6)CC5)c4n3CC3CC3)n(C)c12 [Example 245, 4-(2-(5-((1R,4R,7R)-7-amino-2-azabicyclo[2.2.1]heptane-2-carbonyl)-7-methoxy-1-methyl-1H-benzo[d]imidazol-2-yl)-1-(cyclopropylmethyl)-1H-indol-7-yl)-N-(pyridin-4-yl)piperidine-1-carboxamide]
47	COc1cc(C(=O)N2C[C@H]3CC[C@@H]2[C@@H]3N)cc2nc(-c3cc4cccc(CCC(N)=O)c4n3CC3CC3)n(C)c12 [Example 20, 3-(2-{5-[(1R,4R,7R)-7-amino-2-azabicyclo[2.2.1]heptane-2-carbonyl]-7-methoxy-1-methyl-1H-1,3-benzodiazol-2-yl}-1-(cyclopropylmethyl)-1H-indol-7-yl)propanamide]
13	COc1cc(C(=O)N2C[C@H]3CC[C@@H]2[C@@H]3N)cc2nc(-c3cc4cccc(C5CC(C(N)=O)C5)c4n3CC3CC3)n(C)c12 (single isomer, unassigned) [Example 46]
34	COc1cc(C(=O)N2C[C@H]3CC[C@@H]2[C@@H]3N)cc2nc(-c3cc4cccc(C5CC(C(=O)N6CCCC6)C5)c4n3CC3CC3)n(C)c12 (single isomer, unassigned) [Example 49]
41	COc1cc(C(=O)N2C[C@H](N)C[C@@H](F)C2)cc2nc(-c3cc4cccc(C5CCN(C(C)=O)CC5)c4n3CC3CC3)n(C)c12 [Example 205, 1-(4-(2-(5-((3R,5R)-3-amino-5-fluoropiperidine-1-carbonyl)-7-methoxy-1-methyl-1H-benzo[d]imidazol-2-yl)-1-(cyclopropylmethyl)-1H-indol-7-yl)piperidin-1-yl)ethan-1-one]

Same assay, conditions: human PAD4, rapid-fire mass spectrum (RFMS) assay; 5 nM hPAD4, 250 μM BAEE; read-out: hPAD4 RFMS IC50

IC50 [nM]	SMILES
135	COc1cc(C(=O)N2C[C@H]3CC[C@@H]2[C@@H]3N)cc2nc(-c3cc4cc(C)ccc4n3CC3CC3)n(C)c12 [Example 153, ((1R,4R,7R)-7-amino-2-azabicyclo[2.2.1]heptan-2-yl)(2-(1-(cyclopropylmethyl)-5-methyl-1H-indol-2-yl)-7-methoxy-1-methyl-1H-benzo[d]imidazol-5-yl)methanone]
34	COc1cc(C(=O)N2C[C@H]3CC[C@@H]2[C@@H]3N)cc2nc(-c3cc4cccc(C5=CCNCC5)c4n3CC3CC3)n(C)c12 [Example 84]
69	COc1cc(C(=O)N2C[C@H]3CC[C@@H]2[C@@H]3N)cc2nc(-c3cc4cccc(NC5CCNCC5)c4n3CC3CC3)n(C)c12 [Example 158, ((1R,4R,7R)-7-amino-2-azabicyclo[2.2.1]heptan-2-yl)(2-(1-(cyclopropylmethyl)-7-(piperidin-4-ylamino)-1H-indol-2-yl)-7-methoxy-1-methyl-1H-benzo[d]imidazol-5-yl)methanone]
